Source: article PMC4623321 (Clinical genitourinary cancer, 2013)
Marks after values point to notes of the source that are not given here.

What was measured:
[1] = Pharmacokinetic assessments in patient plasma; assay type: in vivo, human
[2] = test system: patients with advanced solid tumors; settings: oral
[3] = test system: S6 ribosomal protein phosphorylation (Ser235/236) in PBMCs; test: PBMC phospho/total S6RP analysis; assay type: in vivo, human; settings: PBMCs of patients, baseline to 1 month of treatment (with vatalanib)
solid tumors = settings: cited from earlier work
[4] = everolimus with vatalanib, day 29, mean ± SD
[5] = vatalanib after everolimus started, day 29, mean ± SD
[6] = vatalanib alone, day 14, mean ± SD

## CO[C@H]1C[C@@H]2CC[C@@H](C)[C@@](O)(O2)C(=O)C(=O)N2CCCC[C@H]2C(=O)O[C@H]([C@H](C)C[C@@H]2CC[C@@H](OCCO)[C@H](OC)C2)CC(=O)[C@H](C)/C=C(\C)[C@@H](O)[C@@H](OC)C(=O)[C@H](C)C[C@H](C)/C=C/C=C/C=C/1C [Everolimus]
[1]; [4]
  CLss/F: 14.3 ± 3.7 L/h
  Cssavg: 15.7 ± 4.9 ng/mL
  Cssmax: 48.5 ± 14.8 ng/mL
[1]; everolimus, cycle 1 day 29, mean concentration-time curve (Fig. 3B)
  Time of peak of mean plasma concentration: 2 h
[1]; human, plasma, oral
  Vd/F: 216 ± 74 L
[1]; human, plasma, oral, everolimus with vatalanib, day 29, 24-hour dosing interval, mean ± SD
  AUC: 377 ± 117 ng·h/mL
[1]; human, plasma, oral, t1/2, everolimus with vatalanib, day 29, mean ± SD
  half-life: 14 ± 2.5 h
[1]; human, plasma, oral, tmax, everolimus with vatalanib, day 29, median (range)
  Tmax: 1.31 h
[2]; combined with vatalanib 1000 mg daily
  Maximum tolerated dose (MTD) of everolimus in the combination: 5 mg daily
[3]
  Mean change in phospho/total ratio of S6RP: no mean change

## Clc1ccc(Nc2nnc(Cc3ccncc3)c3ccccc23)cc1 [Vatalanib]
[1]; day 14 vs day 29
  Effect of adding everolimus on systemic exposure of vatalanib (AUC): not significantly affected
  Effect of everolimus on the PK parameters of vatalanib (maximum or steady-state plasma concentrations): no substantial effect
[1]; human, plasma, oral
  Vd/F: 488 ± 481 L
[1]; human, plasma, oral, vatalanib after everolimus started, day 29, 24-hour dosing interval, mean ± SD
  AUC: 21600 ng·h/mL
[1]; human, plasma, oral, vatalanib alone, day 14, 24-hour dosing interval, mean ± SD
  AUC: 26400 ng·h/mL
[1]; human, plasma, oral, t1/2, vatalanib after everolimus started, day 29, mean ± SD
  half-life: 5.7 h
[1]; human, plasma, oral, t1/2, vatalanib alone, day 14, steady state, plasma, mean ± SD
  half-life: 6.3 h
[1]; human, plasma, oral, tmax, vatalanib after everolimus started, day 29, median (range)
  Tmax: 2 h
[1]; human, plasma, oral, tmax, vatalanib alone, day 14, median (range)
  Tmax: 2 h
[1]; [5]
  Cssavg: 901 ± 403 ng/mL
  Cssmax: 3963 ± 1861 ng/mL
  t1/2: 5.71 ± 3.06 h
[1]; vatalanib after everolimus started, day 29, median (range)
  Tmax: 2.08 (1.00-4.08) ^a h
[1]; [6]
  Cssavg: 1099 ± 551 ng/mL
  Cssmax: 4825 ± 2910 ng/mL
[1]; vatalanib alone, day 14, steady state, plasma, mean ± SD
  t1/2: 6.32 ± 4.46 h
[2]; combined with everolimus 5 mg daily
  Maximum tolerated dose (MTD) of vatalanib in the combination: 1000 mg daily
Solid tumors; several clinical trials
  Daily dose with radiographic evidence of a decrease in tumor blood flow: ≥ 1000 mg
Solid tumors; single agent, clinical trials
  Tolerable dosing: ≤ 2000 mg daily
